# Values quoted from earlier work, collected in patent US20030157104A1, “Treatment of refractory human tumors with epidermal growth factor receptor antagonists” (priority 1999, published 2003).
# System: FGFR
# Conditions: Panek et al.
compound,measurement,value
"CCN(CC)CCOc1ccc(Nc2ncc3cc(-c4c(Cl)cccc4Cl)c(=O)n(C)c3n2)cc1 [PD166285, 6-(2,6-dichlorophenyl)-2-(4-(2-diethylaminoethoxy)phenylamino)-8-methyl-8H-pyrido(2,3-d)pyrimidin-7-one]",inhibition of FGFR family of receptors,inhibits
